According to PubChem BioAssay AID1645862 (Buhrlage Lab, Dana-Farber Cancer Institute and Novartis …, 2021):
The source made the active and inactive calls. How the calls were made is not given here.

These molecules were tested against Ubiquitin carboxyl-terminal hydrolase 8 (Homo sapiens) (UniProt P40818) (assay: Ubiquitin-specific protease 8 inhibitors, concentration-effect, biochemical, validation of initial actives (AID 1645862;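 further: potency reflects inhibition of USP8 cleavage of a ubiquitin rhodamine substrate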)). Settings: recombinant USP8 deubiquitinase activity assay.
Chain of Ubiquitin carboxyl-terminal hydrolase 8 (Homo sapiens) (P40818 whole entry, looked up): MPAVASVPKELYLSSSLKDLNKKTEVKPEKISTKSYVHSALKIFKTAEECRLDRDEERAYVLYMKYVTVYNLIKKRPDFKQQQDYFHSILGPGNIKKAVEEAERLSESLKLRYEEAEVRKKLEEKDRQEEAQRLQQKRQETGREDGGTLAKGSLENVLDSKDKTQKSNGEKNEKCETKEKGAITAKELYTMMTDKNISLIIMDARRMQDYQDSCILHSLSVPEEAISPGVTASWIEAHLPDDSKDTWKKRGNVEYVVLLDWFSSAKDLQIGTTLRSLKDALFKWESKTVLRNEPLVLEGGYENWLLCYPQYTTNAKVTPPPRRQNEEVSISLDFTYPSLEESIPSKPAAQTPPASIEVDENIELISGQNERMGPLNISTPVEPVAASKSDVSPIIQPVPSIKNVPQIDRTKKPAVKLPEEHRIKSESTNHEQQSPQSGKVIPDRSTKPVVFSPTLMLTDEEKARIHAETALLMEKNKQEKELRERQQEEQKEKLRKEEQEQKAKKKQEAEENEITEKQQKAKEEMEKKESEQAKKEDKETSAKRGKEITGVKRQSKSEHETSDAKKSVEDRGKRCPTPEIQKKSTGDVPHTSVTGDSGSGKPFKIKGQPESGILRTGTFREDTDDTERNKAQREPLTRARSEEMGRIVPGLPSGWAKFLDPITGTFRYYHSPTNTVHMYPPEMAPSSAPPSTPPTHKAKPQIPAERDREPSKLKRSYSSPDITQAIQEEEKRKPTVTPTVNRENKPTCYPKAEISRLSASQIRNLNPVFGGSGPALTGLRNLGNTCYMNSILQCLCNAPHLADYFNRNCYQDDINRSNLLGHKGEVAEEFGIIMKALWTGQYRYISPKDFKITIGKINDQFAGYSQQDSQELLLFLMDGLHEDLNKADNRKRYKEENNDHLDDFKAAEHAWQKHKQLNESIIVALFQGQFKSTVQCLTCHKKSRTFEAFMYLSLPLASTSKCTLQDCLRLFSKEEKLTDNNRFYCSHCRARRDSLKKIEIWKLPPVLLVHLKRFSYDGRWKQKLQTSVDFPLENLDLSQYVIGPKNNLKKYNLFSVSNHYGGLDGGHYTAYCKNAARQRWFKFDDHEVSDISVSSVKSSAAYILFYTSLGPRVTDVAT

Row | Compound | IC50
1 | Cc1c(C(=O)OCC(=O)Nc2ccc3c(c2)OCO3)oc2ccc(Br)cc12 | > 40 µM (inactive)
2 | CC(=O)c1cccc(NC(=O)COC(=O)c2sc3cc(F)ccc3c2Cl)c1 | > 40 µM (inactive)
3 | COc1cc2c(=O)n(CC3CCCO3)c(=O)n(CC(=O)c3ccc4c(c3)OCO4)c2cc1OC (centres undefined) | > 40 µM (inactive)
4 | O=C(Nc1ccc(Cn2cnc(-c3nc(-c4ccccc4)no3)c2)cc1)c1ccccc1F | > 40 µM (inactive)
5 | COc1cc(Cl)c(NC(=O)C2Cc3ccccc3N2C(=O)c2ccccc2)c(OC)c1 (centres undefined) | > 40 µM (inactive)
6 | CCOc1ccc2c(c1)c(=O)c(C(=O)c1ccccc1)cn2CC(=O)Nc1ccc(OC)cc1 | > 40 µM (inactive)
7 | COc1ccccc1-c1noc(CCCC(=O)Nc2ccccc2)n1 | > 40 µM (inactive)
8 | O=C(Cn1c(=O)n(CC2CCC(C(=O)NCCc3ccccc3)CC2)c(=O)c2ccccc21)NCc1ccco1 (centres undefined) | > 40 µM (inactive)
9 | Cc1ccc(NCc2cc3c(-c4cccc(F)c4)nn(-c4ccccc4)c3[nH]c2=O)cc1C | > 40 µM (inactive)
10 | Cc1cccc(C(=O)OCC(=O)Nc2ccc3[nH]c(=O)[nH]c3c2)c1 | > 40 µM (inactive)
11 | O=C(Cn1c(=O)c2sccc2n(Cc2ccc([N+](=O)[O-])cc2)c1=O)NCCc1ccccc1 | > 40 µM (inactive)
12 | O=C(Cn1cnc(-c2noc(-c3cccc(F)c3)n2)c1)Nc1ccccc1 | > 40 µM (inactive)
13 | O=C(CCCC(=O)N(c1ccc2c(c1)OCCO2)C(C(=O)NC1CCCCC1)c1ccc(F)cc1)Nc1ccccn1 (centres undefined) | > 40 µM (inactive)
14 | COc1ccc2nc(N3CC(C(=O)Nc4ccc(C(N)=O)cc4)C3)sc2c1 | > 40 µM (inactive)
15 | COc1cccc(NC(=O)CCc2nnc3n(CCCOC(C)C)c(=O)c4ccccc4n23)c1 | > 40 µM (inactive)
16 | O=C(Cn1cc(C(=O)c2ccccc2)c(=O)c2cc(F)ccc21)Nc1ccc2c(c1)OCCO2 | > 40 µM (inactive)
17 | CCc1ccc(S(=O)(=O)c2cn(CC(=O)Nc3ccccc3)c3ccccc3c2=O)cc1 | > 40 µM (inactive)
18 | CCn1cc2c(n1)c(=O)n(Cc1ccccc1)c(=O)n2CC(=O)Nc1ccc(C(C)C)cc1 | > 40 µM (inactive)
19 | Cc1cccc(NC(=O)CSc2nnc(-c3n[nH]c4c3CCC4)n2N)c1C | > 40 µM (inactive)
20 | COc1ccc(NC(=O)Cn2c(=O)n(CCCC(=O)NCCc3ccc(OC)c(OC)c3)c(=O)c3ccccc32)cc1Cl | > 40 µM (inactive)

Row | Compound | IC50
21 | Cc1cc(-c2nnc(SCC(=O)Nc3ccc(Br)c(C)c3)n2N)n[nH]1 | > 40 µM (inactive)
22 | Nc1ncnc2c1ncn2[C@@H]1O[C@H](CO)C[C@@H]1O | > 40 µM (inactive)
23 | COc1ccccc1C(=O)N1CCC[C@H](Cn2nnc(-c3cccnc3)n2)C1 | > 40 µM (inactive)
24 | Cc1ccc(NC(=O)Cn2cncc(-c3nc(-c4ccccc4)cs3)c2=O)cc1F | > 40 µM (inactive)
25 | Cc1nc2c(c(C)c1CCC(=O)Nc1ccccc1F)c(=O)n(C)c(=O)n2C | > 40 µM (inactive)
26 | Cc1cccc(NC(=O)c2cc(-c3ccc(C)c(C)c3O)n[nH]2)c1 | > 40 µM (inactive)
27 | Cc1ccc(C(=O)c2cn(CC(=O)Nc3ccc(F)c(F)c3)c3ccc(F)cc3c2=O)cc1 | > 40 µM (inactive)
28 | COc1cc(C2CC(=O)c3c([nH]c(C(=O)OCCOc4ccccc4)c3C)C2)cc(OC)c1OC (centres undefined) | > 40 µM (inactive)
29 | O=C1CC(c2cc3c(cc2Br)OCO3)c2cc3c(cc2N1)OCCO3 (centres undefined) | > 40 µM (inactive)
30 | Cc1ccc2c(CNCCC3=CCCCC3)c(C(=O)O)n(C)c2c1 | > 40 µM (inactive)
31 | COc1ccc(CNC(=O)CCCc2nnc3c(=O)n(-c4cc(C)cc(C)c4)ccn23)cc1 | > 40 µM (inactive)
32 | CCc1noc(-c2ccn3c(CC(=O)Nc4ccccc4C)nnc3c2)n1 | 16.5 µM
33 | CC1CCc2c(sc(NC(=O)c3cccc(S(C)(=O)=O)c3)c2C(N)=O)C1 (centres undefined) | > 40 µM (inactive)
34 | COc1ccc2cc(C(=O)N3CCC(C(C)C(=O)NCc4cccc(F)c4)CC3)[nH]c2c1 (centres undefined) | > 40 µM (inactive)
35 | O=C(COc1ccc(N2CC(C(=O)NCc3ccc4c(c3)OCO4)CC2=O)cc1)Nc1ccc(F)cc1 (centres undefined) | > 40 µM (inactive)
36 | CCc1ccccc1NC(=O)Cn1c(=O)n(CC(=O)NCc2ccccc2Cl)c(=O)c2sccc21 | > 40 µM (inactive)
37 | CC1(C)Cc2c(c(-c3ccco3)nc3sc4c(SCCCc5ccccc5)ncnc4c23)CO1 | 24 µM
38 | NC(=O)C[C@H](NC(=O)[C@H](Cc1ccccc1)n1c(=O)[nH]c2ccccc2c1=O)C(=O)N[C@@H](Cc1ccccc1)C(=O)O | > 40 µM (inactive)
39 | O=C(NCC1(c2ccccc2)CCC1)c1nc2n(n1)-c1ccccc1S(=O)(=O)N2 | > 40 µM (inactive)
40 | COC(=O)c1ccc(Nc2cc(C)nc3cc(C(F)(F)F)ccc23)cc1 | > 40 µM (inactive)

Row | Compound | IC50
41 | COc1ccc(NC(=O)c2nnc(C(=O)NCc3ccccc3F)s2)cc1 | > 40 µM (inactive)
42 | O=C(/C=C/c1ccco1)N1CCC(Cn2cccn2)CC1 | > 40 µM (inactive)
43 | Cc1nnc(NC(=O)C2CC(=O)N(CCc3ccc(F)cc3)C2)s1 (centres undefined) | > 40 µM (inactive)
44 | CCOC(=O)c1ccc(NC(=O)Cn2c(=O)n(-c3ccc(CC(=O)NCc4ccco4)cc3)c(=O)c3ccccc32)cc1 | > 40 µM (inactive)
45 | CCc1ccc(NC(=O)CSc2nc3nccnc3c(=O)n2Cc2ccc(F)cc2)cc1 | > 40 µM (inactive)
46 | CCCCOc1ccc(C(=O)n2ccn(S(=O)(=O)c3ccc(C)cc3)c2=O)cc1 | > 40 µM (inactive)
47 | CCOc1ccc2c(c1)c(=O)c(C(=O)c1ccc(C)cc1)cn2CC(=O)Nc1ccc(OC)c(OC)c1 | > 40 µM (inactive)
48 | O=C(Cn1nc(-c2ccccc2)cc(NC(=O)c2ccccc2)c1=O)Nc1ccc(F)cc1 | > 40 µM (inactive)
49 | Cc1cc(C(F)(F)F)n2nc(C3CCN(C(=O)c4cnn(C)c4C)C3)cc2n1 (centres undefined) | 23.8 µM
50 | Cc1cc(=O)n2c3c(c4c(cc13)c(CO)cc(=O)n4C)OC2 | 22.6 µM
51 | O=C(CCSc1ccc(Cl)cc1)c1cccs1 | > 40 µM (inactive)
52 | Cc1cc(Nc2ccc(C(=O)NCc3ccco3)cc2)n2nc(-c3cccnc3)nc2n1 | > 40 µM (inactive)
53 | COc1ccc(S(=O)(=O)NCc2ccc3c(c2)cc(C)n3C)cc1 | > 40 µM (inactive)
54 | COc1ccc(OC)c(NC(=O)Cn2c(=O)n(CC3CCC(C(=O)NCCc4ccccc4)CC3)c(=O)c3ccccc32)c1 (centres undefined) | > 40 µM (inactive)
55 | O=C(COc1ccccc1-c1nnc(-c2ccccc2)o1)NCc1ccco1 | 37.9 µM
56 | Cc1ccc(C(=O)c2cn(CC(=O)Nc3ccccc3)c3ccccc3c2=O)cc1 | > 40 µM (inactive)
57 | Cc1ccc(NC(=O)Cc2nnc3c(-c4nc(C5CC5)no4)cccn23)c(C)c1 | > 40 µM (inactive)
58 | Cc1ccccc1NC(=O)Cn1c(=O)n(-c2ccc(CC(=O)NCCc3ccccc3)cc2)c(=O)c2sccc21 | 36.8 µM
59 | Cc1ccc(NC(=O)Nc2ccc(C)n(CC(=O)Nc3ccc(C)c(C)c3)c2=O)cc1 | 39.2 µM

Other lines, results leading:

Row | IC50 | Compound
60 | > 40 µM (inactive) | N#Cc1cccnc1N1CCN(C(=O)Nc2cccc3ccccc23)CC1
61 | > 40 µM (inactive) | O=C(Cn1c(=O)c2ccccc2c2ccccc21)Nc1ccc2c(c1)OCO2
62 | > 40 µM (inactive) | O=C(CSc1nnc2ccc3ccccc3n12)c1ccc(Cl)cc1
63 | 7.16 µM | Cc1ccc(-n2cc(-c3noc(C(=O)Nc4ccc(F)cc4C)n3)nn2)cc1
64 | > 40 µM (inactive) | COc1ccccc1C(=O)Nc1ccc(-c2nc3ccccc3o2)c(O)c1
65 | > 40 µM (inactive) | Cc1ccc2c(c1)c1ncn(Cc3nc(C)no3)c(=O)c1n2CC(=O)NCc1ccccc1
66 | 21.8 µM | Cc1ccc(Cn2cc(-c3noc(C(=O)Nc4cc(F)ccc4F)n3)nn2)cc1
67 | > 40 µM (inactive) | COc1ccc(NC(=O)Cn2cc(C(=O)c3ccccc3)c(=O)c3cc(Cl)ccc32)cc1OC
68 | 20.6 µM | COc1ccc(OC)c(-c2cn3ccn(-c4ccc(F)c(Cl)c4)c(=O)c3n2)c1
69 | > 40 µM (inactive) | O=C(Cc1ccc(-n2c(=O)c3ccccc3n(Cc3cccc(F)c3)c2=O)cc1)NC1CCCC1
70 | > 40 µM (inactive) | Cc1noc(-c2cc(=O)n(CC(=O)NCc3ccccc3F)c3ccccc23)n1
71 | > 40 µM (inactive) | Cc1cc(N2CCN(c3ncccn3)CC2)nc2ccc(NC(=O)Cn3nc([N+](=O)[O-])c(Br)c3C)cc12
72 | > 40 µM (inactive) | Fc1cccc(Nc2ncnc3c2oc2ccccc23)c1
73 | > 40 µM (inactive) | Cc1nc(N2CCN(c3ccc(Cl)cc3)CC2)c2oc3ccccc3c2n1
74 | > 40 µM (inactive) | O=C(NC1CCCC1)c1ccc(Cn2c(=O)c3ccccc3n(Cc3cc(=O)n4ccccc4n3)c2=O)cc1
75 | > 40 µM (inactive) | COc1ccc(CCC(=O)Nc2nnc(C3CC(=O)N(c4ccc(C)cc4)C3)s2)cc1 (centres undefined)
76 | > 40 µM (inactive) | CNc1nc2c(c(=O)n1C)CN(C(=O)Nc1cccc3ccccc13)CC2
77 | > 40 µM (inactive) | Cc1c(OCC(=O)NCc2ccccc2Cl)ccc2c3c(c(=O)oc12)CCC3
78 | > 40 µM (inactive) | O=C(Cn1c(=O)n(CCC(=O)N2CCc3ccccc3C2)c(=O)c2ccccc21)NCc1ccccc1Cl
79 | > 40 µM (inactive) | Cc1nc(SCC(=O)Nc2ccc(S(N)(=O)=O)cc2)c2cnn(-c3ccccc3)c2n1
80 | > 40 µM (inactive) | COc1ccc(CNC(=O)c2ccc3c(=O)nc4c(-c5cccc(C)c5)n[nH]n4c3c2)cc1
81 | > 40 µM (inactive) | O=C(CC1C(=O)Nc2nc(-c3ccccc3)nn21)Nc1cccc2ccccc12 (centres undefined)
82 | > 40 µM (inactive) | Cc1[nH]n2c(=O)c(Cl)c(-c3ccccc3)nc2c1-c1ccccc1
83 | > 40 µM (inactive) | COc1cccc(NC(=O)c2oc3ccccc3c2NC(=O)COc2cccc(OC)c2)c1
84 | > 40 µM (inactive) | O=S(=O)(c1ccccc1Cl)N1CCN(c2ccc3nnc(-c4ccco4)n3n2)CC1
85 | > 40 µM (inactive) | COc1ccc(N2CC(c3nnc(NC(=O)CCc4ccccc4)s3)CC2=O)cc1 (centres undefined)
86 | > 40 µM (inactive) | COc1ccc(C2(c3nnc(C(C)Oc4ccc(F)cc4)o3)CCOCC2)cc1 (centres undefined)
87 | > 40 µM (inactive) | CC(c1ccccc1)N1CC(O)=C(c2nc3ccccc3s2)C1=N (centres undefined)
88 | > 40 µM (inactive) | CC(C)CC(NC(=O)c1ccc(Cl)cc1Cl)c1nc2ccccc2[nH]1 (centres undefined)
89 | > 40 µM (inactive) | CC(=O)c1ccc(NC(=O)CSc2nc(-c3ccccc3)nc3c2COC(C)(C)C3)cc1
